Results reported in patent publication US20230174523A1, “BENZENESULFONAMIDE DERIVATIVES AS TRAP1 MODULATORS AND USES THEREOF” (Amathus Therapeutics, Inc., priority 2020, published 2023).

Biological target: T1, TRAP1 enzyme (Homo sapiens, UniProt Q12931)
T1 sequence (Q12931 60-704): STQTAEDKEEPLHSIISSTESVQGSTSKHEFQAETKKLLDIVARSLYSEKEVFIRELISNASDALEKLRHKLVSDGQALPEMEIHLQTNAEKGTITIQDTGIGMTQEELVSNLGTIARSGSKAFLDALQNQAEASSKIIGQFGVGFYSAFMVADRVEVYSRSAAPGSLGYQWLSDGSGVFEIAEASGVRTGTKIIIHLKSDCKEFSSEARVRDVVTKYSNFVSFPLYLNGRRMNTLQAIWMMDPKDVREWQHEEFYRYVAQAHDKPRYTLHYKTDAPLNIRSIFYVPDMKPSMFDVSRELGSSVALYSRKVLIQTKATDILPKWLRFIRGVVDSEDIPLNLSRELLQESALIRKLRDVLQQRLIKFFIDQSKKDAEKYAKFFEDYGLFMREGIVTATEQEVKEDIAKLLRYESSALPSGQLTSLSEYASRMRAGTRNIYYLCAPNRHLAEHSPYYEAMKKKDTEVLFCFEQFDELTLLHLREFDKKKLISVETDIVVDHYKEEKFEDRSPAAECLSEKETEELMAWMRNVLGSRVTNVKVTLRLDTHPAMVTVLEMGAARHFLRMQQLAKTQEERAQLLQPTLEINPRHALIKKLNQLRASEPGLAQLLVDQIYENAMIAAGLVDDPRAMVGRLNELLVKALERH
Assay: ADP Glo assay of TRAP1 ATPase activity
Assay type: biochemical
Settings: for EC50: TRAP1 ATPase activation, 150 nM Trap1, 20 μM ATP, geometric mean, read-out: ADP GLO DRC: GeoMean EC50; for Emax: read-out: ADP GLO DRC: Mean Emax
Procedure: Potency of test compounds to modulate the ATPase activity of TRAP1 enzyme was evaluated using ADP Glo assay. The assay is based on quantification of the ADP generated from ATP in the ATPase reaction. The assay is performed in two steps: first, after the ATPase reaction, an equal volume of ADP-Glo™ Reagent is added to terminate the ATPase reaction and deplete the remaining ATP. Second, the Kinase Detection Reagent is added to simultaneously convert ADP to ATP and allow the newly synthesized ATP to be measured using a luciferase/luciferin reaction.
All the assays were carried out in a 384-well Proxiplate. The buffer used was 25 mM Pipes pH-7.5, 40 mM KCl, 0.05 mM MgCl2, 0.025% BSA, 0.316 mM EGTA, 0.003% Empigen, 0.01% Igepal. 150 nM Trap1 enzyme was incubated with various concentrations of the test compound (0.79 μM-100 μM) at 37° C. for 30 mins (except in blank wells). 20 μM ATP was added to each well to start the reaction. The plate was spun for 1 min at 1200 rpm and then incubated at 37° C. for 60 mins. 5 μl of ADP Glo reagent was added to all the wells and spun the plate for 1 min at 1200 rpm and kept it on a shaker at ambient temperature for 60 mins. 10 μl of kinase detection mix was added to all the wells and the plate was read for Luminescence at 495 nm. The amount of ADP released was estimated from ATP/ADP standard curve generated at the same experimental conditions. Emax (Maximal percent activation) and EC50 (concentration for half maximal activation) were estimated by fitting the dose response data to a sigmoidal curve fitting equation using Graphpad Prism software V. 8.

EC50 [µM] | Emax [%] | Compound
20 to 100 | 123 to 159 | Cc1cc(Cl)nc(Cl)c1C(=O)Nc1ccc(F)c(S(=O)(=O)Nc2ccc(Cl)cc2)c1 [Compound 691]
20 to 100 | 123 to 159 | COc1ccc(NC(=O)c2c(C(F)(F)F)ccnc2C)cc1S(=O)(=O)Nc1c(C)cccc1C [Compound 1153]
< 10 | 160 to 199 | CCCN1CCN(c2ccc(C(=O)Nc3ccc(OC)c(S(=O)(=O)Nc4c(C)cccc4C)c3)cc2)CC1 [Compound 1174]
20 to 100 | 160 to 199 | COc1ccc(NC(=O)c2cn(C(C)(C)C)nn2)cc1S(=O)(=O)Nc1c(C)cccc1C [Compound 1050]
< 10 | 200 to 300 | COc1ccc(NC(=O)c2ccnc(-c3ccccc3)c2)cc1S(=O)(=O)Nc1c(C)cccc1C [Compound 1285]
10 to 20 | 160 to 199 | CCS(=O)(=O)c1ccc(OC)c(C(=O)Nc2ccc(F)c(S(=O)(=O)Nc3ccc(Cl)cc3)c2)c1 [Compound 822]
< 10 | 200 to 300 | COc1ccc(NC(=O)c2cc3ccncc3s2)cc1S(=O)(=O)Nc1c(C)cccc1C [Compound 1043]
< 10 | 160 to 199 | COc1ccc(NC(=O)c2nc3c(C)cccc3s2)cc1S(=O)(=O)Nc1c(C)cccc1C [Compound 1125]
10 to 20 | 160 to 199 | O=C(Nc1ccc(F)c(S(=O)(=O)Nc2ccc(Cl)cc2)c1)c1scnc1C1CC1 [Compound 724]
10 to 20 | 123 to 159 | Cc1oc(C)c(C(=O)Nc2ccc(F)c(S(=O)(=O)Nc3ccc(Cl)cc3)c2)c1C [Compound 740]
< 10 | 160 to 199 | COc1ccc(NC(=O)c2cn(C)c3ncccc23)cc1S(=O)(=O)Nc1ccc(Cl)cc1 [Compound 1345]
20 to 100 | 160 to 199 | COc1ccc(NC(=O)c2cccnc2-c2ccccc2C)cc1S(=O)(=O)Nc1c(C)cccc1C [Compound 1053]
10 to 20 | 200 to 300 | COc1ccc(NC(=O)c2ccc3nc(C)ccc3c2)cc1S(=O)(=O)Nc1c(C)cccc1C [Compound 1118]
20 to 100 | 123 to 159 | O=C(Nc1ccc(F)c(S(=O)(=O)Nc2ccc(Cl)cc2)c1)c1cccc(-n2cncn2)c1 [Compound 1220]
< 10 | 200 to 300 | COc1ccc(NC(=O)c2cc(-c3ccccc3)[nH]n2)cc1S(=O)(=O)Nc1c(C)cccc1C [Compound 1258]
20 to 100 | 160 to 199 | COc1ccc(NC(=O)c2ncn(C(C)C)n2)cc1S(=O)(=O)Nc1c(C)cccc1C [Compound 1069]
20 to 100 | 160 to 199 | COc1ccc(NC(=O)c2cccc3cnccc23)cc1S(=O)(=O)Nc1c(C)cccc1C [Compound 1224]
10 to 20 | 200 to 300 | COc1ccc(NC(=O)c2cccc(-c3cnccn3)c2)cc1S(=O)(=O)Nc1c(C)cccc1C [Compound 1222]
10 to 20 | 160 to 199 | COc1ccc(NC(=O)c2ocnc2C(C)C)cc1S(=O)(=O)Nc1ccc(Cl)cc1 [Compound 596]
10 to 20 | 123 to 159 | COc1ccc(NC(=O)c2c(C)noc2-c2ccccc2)cc1S(=O)(=O)Nc1c(C)cccc1C [Compound 1244]
10 to 20 | 200 to 300 | COc1ccc(NC(=O)c2cc(C3CC3)on2)cc1S(=O)(=O)Nc1c(C)cccc1C [Compound 1031]
20 to 100 | 160 to 199 | CCc1ncsc1C(=O)Nc1ccc(OC)c(S(=O)(=O)Nc2c(C)cccc2C)c1 [Compound 1137]
10 to 20 | 160 to 199 | Cc1ncc(Br)cc1C(=O)Nc1ccc(F)c(S(=O)(=O)Nc2ccc(Cl)cc2)c1 [Compound 795]
< 10 | 123 to 159 | CCOc1cc(OCC)cc(C(=O)Nc2ccc(OC)c(S(=O)(=O)Nc3c(C)cccc3C)c2)c1 [Compound 1117]
< 10 | 160 to 199 | COc1ccc(NC(=O)c2ncc(-c3ccccc3)o2)cc1S(=O)(=O)Nc1c(C(C)C)ccnc1C(C)C [Compound 1809]

EC50 [µM] | Emax [%] | Compound
< 10 | 160 to 199 | COc1ccc(NC(=O)c2coc(-c3ccccc3)n2)cc1S(=O)(=O)Nc1c(C)cccc1C [Compound 1301]
< 10 | 123 to 159 | COc1ccc(NC(=O)c2nc(-c3ccccc3)oc2C)cc1S(=O)(=O)Nc1c(C)cccc1C [Compound 1139]
10 to 20 | 123 to 159 | COc1ccc(NC(=O)c2cc(C)n(C(F)F)n2)cc1S(=O)(=O)Nc1c(C)cccc1C [Compound 1149]
20 to 100 | 160 to 199 | O=C(Nc1ccc(F)c(S(=O)(=O)Nc2ccc(Cl)cc2)c1)c1cnccc1-c1ccccc1 [Compound 770]
20 to 100 | 200 to 300 | O=C(c1ccccc1)c1cccnc1C(=O)Nc1ccc(F)c(S(=O)(=O)Nc2ccc(Cl)cc2)c1 [Compound 836]
20 to 100 | 160 to 199 | COc1ccc(NC(=O)c2ccc(C(C)(C)C)nc2)cc1S(=O)(=O)Nc1c(C)cccc1C [Compound 1052]
< 10 | 123 to 159 | COc1ccc(NC(=O)c2ccc(C(F)(F)F)n2C)cc1S(=O)(=O)Nc1c(C)cccc1C [Compound 1013]
10 to 20 | 160 to 199 | COc1ccc(NC(=O)c2ccccc2C2CC2)cc1S(=O)(=O)Nc1c(C)cccc1C [Compound 1028]
< 10 | 123 to 159 | COc1ccc(NC(=O)c2cccc(Cc3ccc(F)cc3)c2)cc1S(=O)(=O)Nc1c(C)cccc1C [Compound 1036]
20 to 100 | 123 to 159 | COc1ccc(NC(=O)c2ccc3ncn(C)c3c2)cc1S(=O)(=O)Nc1c(C)cccc1C [Compound 1238]
10 to 20 | 160 to 199 | COc1ccc(NC(=O)c2cc3c(C)nn(C)c3s2)cc1S(=O)(=O)Nc1c(Cl)cccc1Cl [Compound 1375]
20 to 100 | 123 to 159 | Cc1nc2cccc(C(=O)Nc3ccc(F)c(S(=O)(=O)Nc4ccc(Cl)cc4)c3)c2s1 [Compound 1268]
10 to 20 | 160 to 199 | COc1ccc(NC(=O)c2cccc(-n3cncn3)c2)cc1S(=O)(=O)Nc1c(C)cccc1C [Compound 1126]
10 to 20 | 160 to 199 | CCc1ccc(NC(=O)c2cccc3ncn(C)c23)cc1S(=O)(=O)Nc1c(C)cccc1C [Compound 1353]
< 10 | 200 to 300 | COc1ccc(NC(=O)c2cnc3ccccc3c2)cc1S(=O)(=O)Nc1c(C)cccc1C [Compound 1330]
10 to 20 | 200 to 300 | COc1ccc(NC(=O)c2cc(-n3ccnc3)ccn2)cc1S(=O)(=O)Nc1c(C)cccc1C [Compound 1030]
10 to 20 | 200 to 300 | COc1ccc(NC(=O)c2sc(Br)nc2C)cc1S(=O)(=O)Nc1c(C)cccc1C [Compound 1115]
< 10 | 200 to 300 | COc1ccc(NC(=O)c2cn(Cc3ccccc3)nn2)cc1S(=O)(=O)Nc1c(C)cccc1C [Compound 1265]
< 10 | 200 to 300 | COc1ccc(NC(=O)c2ccc3c(c2)n(C)c(=O)n3C)cc1S(=O)(=O)Nc1c(C)cccc1C [Compound 1146]
20 to 100 | 200 to 300 | Cc1c(Br)cncc1C(=O)Nc1ccc(F)c(S(=O)(=O)Nc2ccc(Cl)cc2)c1 [Compound 826]
< 10 | 123 to 159 | COc1ccc(NC(=O)c2ccc(-c3ccc(F)cc3)cc2F)cc1S(=O)(=O)Nc1c(C)cccc1C [Compound 1142]
20 to 100 | 123 to 159 | Cn1cnc2cc(C(=O)Nc3ccc(F)c(S(=O)(=O)Nc4ccc(Cl)cc4)c3)ccc2c1=O [Compound 1256]
20 to 100 | 160 to 199 | COc1ccc(NC(=O)c2cccc3ncccc23)cc1S(=O)(=O)Nc1c(C)cccc1C [Compound 1219]
10 to 20 | > 300 | CCc1cc(C(=O)Nc2ccc(OC)c(S(=O)(=O)Nc3c(C)cccc3C)c2)cc(C)n1 [Compound 1018]
< 10 | 123 to 159 | COc1ccc(NC(=O)c2cccnc2SCc2ccccc2)cc1S(=O)(=O)Nc1c(C)cccc1C [Compound 1157]
